Tests used:
[1] = target: norepinephrine transporter (Mus musculus); assay: In vitro inhibition of accumulation of (-)-[3H]Norepinephrine (NA) in mouse brain slices
[2] = target: serotonin transporter (Mus musculus); assay: In vitro inhibition of accumulation of [14C]5-HT (5-HT) in mouse brain slices

IC50 [1] [µM] | IC50 [2] [µM] | SMILES
27 | 3.7 | CN(C)C/C=C(/c1ccccc1)c1cccnc1 [cis -Dimethyl-(3-phenyl-3-pyridin-3-yl-allyl)-amine;1.5C2H4O4]
> 29 | 2.4 | Cc1ccc(/C(=C/CN(C)C)c2cccnc2)cc1 [cis -Dimethyl-(3-pyridin-3-yl-3-p-tolyl-allyl)-amine;C2H4O4]
13 | 2 | CN(C)C/C=C(/c1ccc(C(F)(F)F)cc1)c1cccnc1 [cis -Dimethyl-[3-pyridin-3-yl-3-(4-trifluoromethyl-phenyl)-allyl]-amine;C2H4O4]
2.3 | 0.5 | CNC/C=C(\c1cccnc1)c1ccc(Cl)cc1Cl [cis-[3-(2,4-Dichloro-phenyl)-3-pyridin-3-yl-allyl]-methyl-amine;C2H4O4]
2.2 | 4.2 | CN(C)C/C=C(\c1cccnc1)c1ccccc1Br [cis-[3-(2-Bromo-phenyl)-3-pyridin-3-yl-allyl]-dimethyl-amine;C2H4O4]
0.3 | 0.6 | CNC/C=C(\c1cccnc1)c1ccccc1Br [cis-[3-(2-Bromo-phenyl)-3-pyridin-3-yl-allyl]-methyl-amine;C2H4O4]
0.9 | 1.4 | CNC/C=C(\c1cccnc1)c1cccc(Br)c1 [cis-[3-(3-Bromo-phenyl)-3-pyridin-3-yl-allyl]-methyl-amine;C2H4O4]
11 | 2.6 | CN(C)C/C=C(\c1cccnc1)c1cccc(Cl)c1 [cis-[3-(3-Chloro-phenyl)-3-pyridin-3-yl-allyl]-dimethyl-amine;C2H4O4]
2.2 | 1.6 | CN(C)C/C=C(\c1cccnc1)c1cccc(F)c1 [cis-[3-(3-Fluoro-phenyl)-3-pyridin-3-yl-allyl]-dimethyl-amine;C2H4O4]
26 | 2 | CCNC/C=C(/c1ccc(Br)cc1)c1cccnc1 [cis-[3-(4-Bromo-phenyl)-3-pyridin-3-yl-allyl]-ethyl-amine;C2H4O4]
> 24 | 24 | CCCNC/C=C(/c1ccc(Br)cc1)c1cccnc1 [cis-[3-(4-Bromo-phenyl)-3-pyridin-3-yl-allyl]-propyl-amine;C2H4O4]
10 | 2.1 | CN(C)C/C=C(/c1ccc(Cl)cc1)c1cccnc1 [cis-[3-(4-Chloro-phenyl)-3-pyridin-3-yl-allyl]-dimethyl-amine;C2H4O4]
> 22 | 1 | CN(C)C/C=C(/c1ccc(I)cc1)c1cccnc1 [cis-[3-(4-Iodo-phenyl)-3-pyridin-3-yl-allyl]-dimethyl-amine;C2H4O4]
34 | 3.5 | CC(C)Oc1ccc(/C(=C/CN(C)C)c2ccncc2)cc1 [cis-[3-(4-Isopropoxy-phenyl)-3-pyridin-4-yl-allyl]-dimethyl-amine;C2H4O4]
> 28 | 0.8 | COc1ccc(/C(=C/CN(C)C)c2cccnc2)cc1 [cis-[3-(4-Methoxy-phenyl)-3-pyridin-3-yl-allyl]-dimethyl-amine;C2H4O4]

Reference: BindingDB's records for doi:10.1021/jm00144a025 (1982)
